Measured values: patent publication US7153824B2, “Inhibitors of phosphodiesterases in infertility” (Applied Research Systems ARS Holding N.V., priority 2003, dated 2006)
Entries after “also recorded” stand apart in the source; their conditions may differ.

How the values were obtained:
[1] = system: Immature Sprague Dawley CD (SD) BR female rats; assay: In vivo Rat Follicle Maturation Assay (ovulated oocytes after r-hCG); conditions: for ovulatable oocytes compared with high dose of FSH alone: 0.4 mg/kg combined with low dose of FSH; for effect on FSH-induced follicle maturation: in vivo, with FSH
PDE1 = conditions: cited from earlier work
PDE5 = PDE5 (Homo sapiens, UniProt O76074); conditions: cited from earlier work
PDE3 = conditions: cited from earlier work
[2] = system: Immature Sprague Dawley CD (SD) BR female rats; assay: Histological count of secondary and antral follicles in rat ovaries; assay type: in vivo
[3] = test compound 25 mg/kg×4 injections s.c. in NP3S with Low Dose FSH
[4] = test compound 1 mg/kg×4 injections s.c. in NP3S with Low Dose FSH
[5] = test compound 1 mg/kg×4 s.c. in NP3S with Low Dose FSH
[6] = test compound 5 mg/kg×4 injections s.c. in NP3S with Low Dose FSH
[7] = test compound 5 mg/kg×4 s.c. in NP3S with Low Dose FSH
[8] = test compound 25 mg/kg×4 s.c. in NP3S with Low Dose FSH
[9] = test compound 5 mg/kg×4 s.c. in aqueous vehicle with Low Dose FSH

In the case of “5′-Methyl-2′(biphenylylmethyl)-3′-(phenylmethyl)spiro[cyclopentane-1,7′(8′h)-[3H]imidazo[2,1-b]purin]-4(5′h)-one [Compound no. 33]”, the “average number of oocytes per rat” value [1, 3] is given as 27, the “Follicular growth activity with Low FSH?” value [1] is given as “YES” and the IC50 (PDE1) is given as 0.6 nM. For the same molecule, the IC50 (PDE5) was 200 nM.
With `COc1ccc([C@]2(C#N)CC[C@@H](C(=O)O)CC2)cc1OC1CCCC1` [ARIFLO (Cilomilast), Cilomilast] the “Follicular growth activity with Low FSH?” value [1] was “Inhibits follicular growth”.
For `COc1ccc([C@H](Cc2ccncc2)c2ccccc2)cc1OC1CCCC1` [CDP840], the “Follicular growth activity with Low FSH?” value [1] was “Inhibits follicular growth”.
For `OCCN(CCO)c1nc(N2CCCCC2)c2nc(N(CCO)CCO)nc(N3CCCCC3)c2n1` [Dipyridamole], the “average number of oocytes per rat” value [1, 4] was 7.5, the rats ovulated [1, 5] was 7 out of 10 and the “average number of oocytes per rat” value [1, 6] was 6.8. The rats ovulated [1, 7] was 6 out of 10, the “average number of oocytes per rat” value [1, 3] was 6.2 and the rats ovulated [1, 8] was 10 out of 10. The “Follicular growth activity with Low FSH?” value [1] was “YES”.
In the case of `CCCOc1cc([C@]2(C)CNC(=O)O2)ccc1OC` [Mesopram], the “follicular maturation, lower dose series” value ([1]; 0.032, 0.016, 0.08 mg/kg together with a low dose of FSH, significance at 0.08 mg/kg) is reported as “dose dependent increase in follicular maturation”, the “follicular maturation versus low FSH alone” value ([1]; 0.08, 0.4, and 2 mg/kg/day together with a low dose of FSH) is reported as “significant enhancement of follicular maturation” and the “follicular maturation at higher doses” value ([1]; higher doses of the 0.08-2 mg/kg/day series, with low dose FSH) is reported as “decrease in follicular maturation”.
For `COc1ccc(C(=O)Nc2c(Cl)cncc2Cl)cc1OC1CCCC1` [Piclamilast], the “ovulatable oocytes compared with high dose of FSH alone” value [1] was “produces more ovulatable oocytes than even the high dose of FSH alone”, the “follicle maturation, compound alone” value ([1]; 2 mg/kg, without co-administration of FSH) was “did induce follicle maturation; also recorded: increased the hCG ovulatable oocytes” and the “follicle maturation, compound alone” value ([1]; 0.08 and 0.4 mg/kg, absence of exogenous FSH) was “not sufficient to induce follicle maturation”. The “follicle maturation (number of ovulatable oocytes)” value ([1]; in the presence of low doses of FSH) was “very marked induction in follicle maturation” and the “effect on FSH-induced follicle maturation” value [1] was “increased FSH-induced follicle maturation”.
With `O=C(Nc1c(Cl)cncc1Cl)c1ccc(OC(F)F)c(OCC2CC2)c1` [Roflumilast] the “ovulatable oocytes compared with high dose of FSH alone” value [1] was “produces more ovulatable oocytes than even the high dose of FSH alone” and the “effect on FSH-induced follicle maturation” value [1] was “increased FSH-induced follicle maturation”.
With `CCCc1nn(C)c2c(=O)[nH]c(-c3cc(S(=O)(=O)N4CCN(C)CC4)ccc3OCC)nc12` [Sildenafil, 5-[2-ethoxy-5-(4-methyl-1-piperazinylsulphonyl)phenyl]-1-methyl-3-n-propyl-1,6-dihydro-7H-pyrazolo[4,3-d]pyrimidin-7-one] the “number of ovulated oocytes per rat as compared to Low Dose FSH alone plus aqueous vehicle control” value ([1]; 1, 5 and 25 mg/kg×4 s.c. in aqueous vehicle with Low Dose FSH) was “dose-related increase”, the “average number of oocytes per rat” value [1, 4] was 3.5 and the rats ovulated [1, 5] was 6 out of 8. For the same molecule, the “average number of oocytes per rat” value [1, 6] was 5.5, the rats ovulated [1, 7] was 5 out of 8 and the “average number of oocytes per rat” value [1, 9] was 20. For the same molecule, the rats ovulated [1, 9] was 7 out of 8, the “average number of oocytes per rat” value [1, 3] was 6.9 and the rats ovulated [1, 8] was 7 out of 8. The “Follicular growth activity with Low FSH?” value [1] was “YES”, the IC50 (PDE1) was 260 nM and the IC50 (PDE3) was […]. The “total number of antral follicles per rat (2 ovaries)” value ([2]; Low FSH + 75 mg/kg Sildenafil) was 7.4 and the “total number of secondary follicles per rat (2 ovaries)” value ([2]; Low FSH + 75 mg/kg Sildenafil (25 mg/kg×3)) was 84.
For `CN1CC(=O)N2[C@H](c3ccc4c(c3)OCO4)c3[nH]c4ccccc4c3C[C@@H]2C1=O` [Tadalafil, (6R,12aR)-2,3,6,7,12,12a-hexahydro-2-methyl-6-(-3,4-methylenedioxyphenyl)pyrazino[2′,1′:6,1]pyrido[3,4-b]indole-1,4-dione], the “average number of oocytes per rat” value ([1]; test compound 25 mg/kg×4 s.c. in water with Low Dose FSH) is given as 16, the “Follicular growth activity with Low FSH?” value [1] is given as “YES” and the IC50 (PDE1) is given as over 30000 nM.
With `CCCOc1ccccc1-c1nc2nn[nH]c2c(=O)[nH]1` [Zaprinast] the “average number of oocytes per rat” value [1, 4] was 3.25, the rats ovulated [1, 5] was 6 out of 10 and the “average number of oocytes per rat” value [1, 6] was 6.4. For the same molecule, the rats ovulated [1, 7] was 9 out of 10, the “average number of oocytes per rat” value [1, 3] was 9.5 and the rats ovulated [1, 8] was 10 out of 10. For the same molecule, the “Follicular growth activity with Low FSH?” value [1] was “YES”, the IC50 (PDE1) was 9400 nM and the IC50 (PDE3) was over 100000 nM.
In the case of “(6aR,9aS)-2-(Biphenylylmethyl)-5,6a,7,8,9,9a-hexahydro-5-methyl-3(phenylmethyl)cyclopent[4,5]imidazo-[2,1-b]purin-4(3H)-one [Compound no. 31]”, the “average number of oocytes per rat” value [1, 3] is given as 18, the “Follicular growth activity with Low FSH?” value [1] is given as “YES” and the IC50 (PDE1) is given as 0.07 nM. For the same molecule, the IC50 (PDE5) was 305 nM.
